Results taken from ChEMBL document CHEMBL3120149, “A multiple free-radical scavenging (MULTIS) study on the antioxidant capacity of a neuroprotective drug, edaravone as compared with uric acid, glutathione, and trolox” (Bioorg Med Chem Lett, 2014).

Key:
Assay type in all cases: functional
[1] = Antioxidant activity assessed as AAPH-induced alkoxyl radical scavenging activity by ESR spin trapping method
[2] = Antioxidant activity assessed as riboflavin/EDTA-induced superoxide anion radical scavenging activity by ESR spin trapping method
[3] = Antioxidant activity assessed as riboflavin/EDTA-induced superoxide anion radical scavenging activity by ESR spin trapping method relative to CYPMPO
[4] = Antioxidant activity assessed as t-butylhyroperoxide-induced alkylperoxyl radical scavenging activity by ESR spin trapping method relative to CYPMPO
[5] = Antioxidant activity assessed as rosebengal-induced singlet oxygen radical scavenging activity by ESR spin trapping method relative to 4-OH-TEMP
[6] = Antioxidant activity assessed as H2O2-induced hydroxyl radical scavenging activity by ESR spin trapping method relative to CYPMPO
[7] = Antioxidant activity assessed as AAPH-induced alkoxyl radical scavenging activity by ESR spin trapping method relative to CYPMPO
[8] = Antioxidant activity assessed as DMSO/H2O2-induced methyl radical scavenging activity by ESR spin trapping method
[9] = Antioxidant activity assessed as H2O2-induced hydroxyl radical scavenging activity by ESR spin trapping method
[10] = Antioxidant activity assessed as DMSO/H2O2-induced methyl radical scavenging activity by ESR spin trapping method relative to DMPO
[11] = Antioxidant activity assessed as rosebengal-induced singlet oxygen radical scavenging activity by ESR spin trapping method
[12] = Antioxidant activity assessed as t-butylhyroperoxide-induced alkylperoxyl radical scavenging activity by ESR spin trapping method
[13] = Antioxidant activity assessed as DMPO/H2O2-induced hydroxyl radical scavenging activity by fast-flow EPR technique
[14] = Antioxidant activity assessed as hydroxyl radical scavenging activity

| SMILES | K [1] | K [2] | Ratio [3] | Ratio [4] | Ratio [5] | Ratio [6] | Ratio [7] | K [8] | K [9] | Ratio [10] | K [11] | K [12] | K [13] | K [14] |
| --- | --- | --- | --- | --- | --- | --- | --- | --- | --- | --- | --- | --- | --- | --- |
| N[C@@H](CCC(=O)N[C@@H](CS)C(=O)NCC(=O)O)C(=O)O | 2.73 ×10⁶ /M/s | 1.12 ×10³ /M/s | 23.3 | 4.09 | 10400 | 1.59 | 121 | 1.99 ×10⁶ /M/s | 16.5 ×10⁹ /M/s | 0.142 | 939 ×10⁶ /M/s | – | – | – |
| CC1(C)COP(=O)(C2(C)CCC=[N+]2[O-])OC1 (stereo not given) | 2.27 ×10⁴ /M/s | 48 M⁻¹ s⁻¹ | – | – | – | – | – | – | – | – | – | – | – | – |
| Cc1c(C)c2c(c(C)c1O)CCC(C)(C(=O)O)O2 (stereo not given) | 4.83 ×10⁶ /M/s | 2.1 ×10³ /M/s | 43.8 | 0 | 692 | 23.8 | 214 | 4.72 ×10⁶ /M/s | 24.8 ×10⁹ /M/s | 0.337 | 62.2 ×10⁶ /M/s | 0 M⁻¹ s⁻¹ | – | – |
| CC1(C)CCC=[N+]1[O-] | – | – | – | – | – | – | – | 1.4 ×10⁷ /M/s | 2.8 ×10⁹ /M/s | – | – | – | – | – |
| Oc1nc(O)c2nc(O)[nH]c2n1 | 9.9 ×10⁶ /M/s | 10.7 ×10³ /M/s | 222 | 0 | 25.7 | 0.894 | 436 | 0 M⁻¹ s⁻¹ | 9.3 ×10⁹ /M/s | 0 | 2.31 ×10⁶ /M/s | 0 M⁻¹ s⁻¹ | – | – |
| CC1=NN(c2ccccc2)C(=O)C1 | 3.16 ×10⁶ /M/s | 2.93 ×10³ /M/s | 61.1 | 39 | 306 | 28.7 | 139 | 30 ×10⁶ /M/s | 298 ×10⁹ /M/s | 2.14 | 27.5 ×10⁶ /M/s | – | 3 ×10¹⁰ /M/s | 1.4 ×10¹⁰ /M/s |
| C[C@@H]1O[C@@H](OC[C@H]2O[C@@H](Oc3c(-c4ccc(O)c(O)c4)oc4cc(O)cc(O)c4c3=O)[C@H](O)[C@@H](O)[C@@H]2O)[C@H](O)[C@H](O)[C@H]1O | 6.9 ×10⁶ /M/s | 1.5 ×10⁴ /M/s | – | – | – | – | – | – | – | – | 3.5 ×10⁸ /M/s | – | – | – |
